How the values were obtained:
Assay in all cases: radiometric filter-binding kinase assay
AURKB (human) = AURKB (human) (UniProt Q96GD4)
STK33 (human) = STK33 (human) (UniProt Q9BYT3)
[1] = test system: OXSR1 (human), O95747 [T185E]
TLK1 (human) = TLK1 (human) (UniProt Q9UKI8)
TTBK1 (human) = TTBK1 (human) (UniProt Q5TCY1)
EIF2AK3 (human) = EIF2AK3 (human) (UniProt Q9NZJ5)
TSSK1B (human) = TSSK1B (human) (UniProt Q9BXA7)
TESK1 (human) = TESK1 (human) (UniProt Q15569)
TEK (human) = TEK (human) (UniProt Q02763)
Sequence of TEK (human) (Q02763 whole entry, looked up): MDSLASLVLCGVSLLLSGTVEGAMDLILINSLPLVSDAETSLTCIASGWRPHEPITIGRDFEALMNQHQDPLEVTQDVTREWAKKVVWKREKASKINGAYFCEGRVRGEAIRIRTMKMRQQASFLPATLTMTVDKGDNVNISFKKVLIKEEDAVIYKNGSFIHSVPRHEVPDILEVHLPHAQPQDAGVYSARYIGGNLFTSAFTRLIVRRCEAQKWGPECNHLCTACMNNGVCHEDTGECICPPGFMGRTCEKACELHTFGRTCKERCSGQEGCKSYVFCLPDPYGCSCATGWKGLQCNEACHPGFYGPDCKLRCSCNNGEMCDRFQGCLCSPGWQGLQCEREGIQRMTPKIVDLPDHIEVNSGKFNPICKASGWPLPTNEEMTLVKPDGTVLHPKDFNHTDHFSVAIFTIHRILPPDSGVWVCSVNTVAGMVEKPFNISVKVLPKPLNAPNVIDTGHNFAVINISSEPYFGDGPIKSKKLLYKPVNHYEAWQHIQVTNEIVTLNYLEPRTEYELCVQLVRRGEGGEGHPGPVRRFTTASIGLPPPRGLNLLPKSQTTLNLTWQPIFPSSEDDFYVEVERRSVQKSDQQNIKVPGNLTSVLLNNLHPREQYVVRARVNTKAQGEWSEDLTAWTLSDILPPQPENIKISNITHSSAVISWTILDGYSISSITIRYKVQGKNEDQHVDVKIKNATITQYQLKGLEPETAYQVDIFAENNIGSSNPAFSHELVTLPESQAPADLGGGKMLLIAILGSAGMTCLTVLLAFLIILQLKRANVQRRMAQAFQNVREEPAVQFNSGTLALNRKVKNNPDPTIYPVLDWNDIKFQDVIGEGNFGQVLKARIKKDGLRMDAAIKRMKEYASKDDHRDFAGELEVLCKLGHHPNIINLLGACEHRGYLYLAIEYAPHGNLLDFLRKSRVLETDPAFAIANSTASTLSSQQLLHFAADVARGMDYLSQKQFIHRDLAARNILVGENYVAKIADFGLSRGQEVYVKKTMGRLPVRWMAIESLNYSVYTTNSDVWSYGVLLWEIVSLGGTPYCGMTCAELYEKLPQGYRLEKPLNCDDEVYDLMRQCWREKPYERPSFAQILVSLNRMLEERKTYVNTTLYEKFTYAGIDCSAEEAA

ABL1 (human) = ABL1 (human) (UniProt P00519)
Sequence of ABL1 (human) (P00519 whole entry, looked up): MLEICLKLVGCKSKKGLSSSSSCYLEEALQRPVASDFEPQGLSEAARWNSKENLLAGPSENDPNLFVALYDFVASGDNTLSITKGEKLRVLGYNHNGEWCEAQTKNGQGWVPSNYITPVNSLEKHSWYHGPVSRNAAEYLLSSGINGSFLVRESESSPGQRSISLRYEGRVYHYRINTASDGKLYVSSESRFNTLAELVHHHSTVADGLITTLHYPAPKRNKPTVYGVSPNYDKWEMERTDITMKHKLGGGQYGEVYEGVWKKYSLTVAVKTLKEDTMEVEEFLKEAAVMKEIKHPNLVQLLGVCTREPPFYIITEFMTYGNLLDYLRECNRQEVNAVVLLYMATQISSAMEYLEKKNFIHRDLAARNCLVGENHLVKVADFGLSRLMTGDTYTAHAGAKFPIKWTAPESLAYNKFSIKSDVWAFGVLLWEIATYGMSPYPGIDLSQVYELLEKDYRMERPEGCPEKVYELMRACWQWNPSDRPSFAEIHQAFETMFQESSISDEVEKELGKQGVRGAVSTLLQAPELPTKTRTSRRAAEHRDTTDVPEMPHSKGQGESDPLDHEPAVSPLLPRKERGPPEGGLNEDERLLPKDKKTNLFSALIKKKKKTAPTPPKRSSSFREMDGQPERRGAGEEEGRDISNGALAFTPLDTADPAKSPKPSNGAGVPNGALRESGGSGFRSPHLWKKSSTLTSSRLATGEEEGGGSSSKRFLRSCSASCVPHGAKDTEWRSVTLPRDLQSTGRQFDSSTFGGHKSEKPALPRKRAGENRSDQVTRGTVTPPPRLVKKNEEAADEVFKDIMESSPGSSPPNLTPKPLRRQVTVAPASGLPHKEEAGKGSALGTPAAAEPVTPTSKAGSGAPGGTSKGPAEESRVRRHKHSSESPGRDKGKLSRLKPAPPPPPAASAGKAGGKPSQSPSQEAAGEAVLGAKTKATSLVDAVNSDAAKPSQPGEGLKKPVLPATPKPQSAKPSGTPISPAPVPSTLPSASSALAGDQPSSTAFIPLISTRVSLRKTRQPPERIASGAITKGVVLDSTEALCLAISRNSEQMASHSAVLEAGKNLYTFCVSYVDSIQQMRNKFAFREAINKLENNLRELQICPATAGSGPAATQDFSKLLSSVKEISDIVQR

PTK6 (human) = PTK6 (human) (UniProt Q13882)
STK16 (human) = STK16 (human) (UniProt O75716)
Sequence of STK16 (human) (O75716 whole entry, looked up): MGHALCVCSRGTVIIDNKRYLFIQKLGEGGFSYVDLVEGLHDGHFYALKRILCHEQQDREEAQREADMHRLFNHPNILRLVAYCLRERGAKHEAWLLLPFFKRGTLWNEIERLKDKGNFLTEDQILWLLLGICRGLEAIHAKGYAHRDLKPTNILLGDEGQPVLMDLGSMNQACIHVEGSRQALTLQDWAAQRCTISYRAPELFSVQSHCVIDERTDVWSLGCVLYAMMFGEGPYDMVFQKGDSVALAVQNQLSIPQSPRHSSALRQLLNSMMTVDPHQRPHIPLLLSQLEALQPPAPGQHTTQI

PHKG1 (human) = PHKG1 (human) (UniProt Q16816)
Sequence of PHKG1 (human) (Q16816 whole entry, looked up): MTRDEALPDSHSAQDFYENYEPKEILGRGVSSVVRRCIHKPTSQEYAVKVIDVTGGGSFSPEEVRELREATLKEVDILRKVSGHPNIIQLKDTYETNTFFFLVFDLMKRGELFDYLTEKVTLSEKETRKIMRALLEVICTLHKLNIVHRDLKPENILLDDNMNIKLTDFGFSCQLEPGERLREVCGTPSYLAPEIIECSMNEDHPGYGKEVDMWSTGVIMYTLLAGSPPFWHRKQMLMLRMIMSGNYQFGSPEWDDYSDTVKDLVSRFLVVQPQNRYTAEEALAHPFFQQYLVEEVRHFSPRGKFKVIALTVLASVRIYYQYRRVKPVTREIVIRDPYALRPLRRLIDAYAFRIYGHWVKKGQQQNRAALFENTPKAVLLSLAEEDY

IRAK1 (human) = IRAK1 (human) (UniProt P51617)
ZAP70 (human) = ZAP70 (human) (UniProt P43403)
PRKCG (human) = PRKCG (human) (UniProt P05129)

Sequence of OXSR1 (human), O95747 [T185E] (O95747 whole entry T185E, looked up): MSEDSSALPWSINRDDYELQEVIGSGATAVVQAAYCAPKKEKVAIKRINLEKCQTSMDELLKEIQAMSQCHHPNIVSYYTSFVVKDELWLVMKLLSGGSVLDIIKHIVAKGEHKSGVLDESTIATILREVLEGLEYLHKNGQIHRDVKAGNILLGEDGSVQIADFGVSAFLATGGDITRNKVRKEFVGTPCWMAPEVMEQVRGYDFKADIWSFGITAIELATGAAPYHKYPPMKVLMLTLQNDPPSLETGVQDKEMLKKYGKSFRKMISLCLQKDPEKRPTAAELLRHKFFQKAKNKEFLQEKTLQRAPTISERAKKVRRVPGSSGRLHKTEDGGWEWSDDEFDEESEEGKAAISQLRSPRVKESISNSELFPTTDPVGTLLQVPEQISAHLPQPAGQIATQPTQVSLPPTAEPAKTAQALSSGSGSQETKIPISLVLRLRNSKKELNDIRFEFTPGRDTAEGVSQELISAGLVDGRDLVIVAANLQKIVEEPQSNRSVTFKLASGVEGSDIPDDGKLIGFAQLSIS
Sequence of AURKB (human) (Q96GD4 whole entry, looked up): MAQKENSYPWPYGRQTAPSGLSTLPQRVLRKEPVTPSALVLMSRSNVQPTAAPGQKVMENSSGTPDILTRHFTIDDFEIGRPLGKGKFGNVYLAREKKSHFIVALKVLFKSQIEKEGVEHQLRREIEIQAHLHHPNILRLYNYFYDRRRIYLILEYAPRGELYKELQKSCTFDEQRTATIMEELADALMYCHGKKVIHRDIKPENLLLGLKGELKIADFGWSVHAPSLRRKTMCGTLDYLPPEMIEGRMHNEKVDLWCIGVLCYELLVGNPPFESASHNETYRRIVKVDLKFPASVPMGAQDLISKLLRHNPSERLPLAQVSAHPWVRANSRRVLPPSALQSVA
Sequence of STK33 (human) (Q9BYT3 whole entry, looked up): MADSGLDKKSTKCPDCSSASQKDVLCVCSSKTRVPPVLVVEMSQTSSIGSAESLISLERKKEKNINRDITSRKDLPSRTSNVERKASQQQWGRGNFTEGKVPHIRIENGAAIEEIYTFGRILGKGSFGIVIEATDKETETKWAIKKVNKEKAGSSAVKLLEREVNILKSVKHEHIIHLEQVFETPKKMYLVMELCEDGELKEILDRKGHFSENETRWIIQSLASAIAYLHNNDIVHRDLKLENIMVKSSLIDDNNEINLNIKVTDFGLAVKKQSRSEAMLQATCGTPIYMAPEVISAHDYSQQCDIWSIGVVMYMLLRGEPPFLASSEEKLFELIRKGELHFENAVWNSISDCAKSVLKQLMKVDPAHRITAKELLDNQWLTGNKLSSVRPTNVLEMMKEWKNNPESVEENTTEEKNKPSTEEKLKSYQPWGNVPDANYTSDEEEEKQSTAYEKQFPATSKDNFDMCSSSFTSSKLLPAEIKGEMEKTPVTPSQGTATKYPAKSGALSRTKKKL

SMILES: Cc1cc(N=Nc2cc(S(=O)(=O)O)c(C)cc2C)c(N)cc1O
- residual activity (AURKB (human); compound 100.0 µM): 93%
- residual activity (STK33 (human); compound 100.0 µM): 107%
- residual activity ([1]; compound 100.0 µM): 97%
- residual activity (TLK1 (human); compound 100.0 µM): 108%
- residual activity (TTBK1 (human); compound 100.0 µM): 94%
- residual activity (EIF2AK3 (human); compound 100.0 µM): 94%
- residual activity (TSSK1B (human); compound 100.0 µM): 107%
- residual activity (TESK1 (human); compound 100.0 µM): 73%
- residual activity (TEK (human); compound 100.0 µM): 103%
- residual activity (ABL1 (human); compound 100.0 µM): 92%
- residual activity (PTK6 (human); compound 100.0 µM): 100%
- residual activity (STK16 (human); compound 100.0 µM): 111%
- residual activity (PHKG1 (human); compound 100.0 µM): 86%
- residual activity (IRAK1 (human); compound 100.0 µM): 104%
- residual activity (ZAP70 (human); compound 100.0 µM): 103%
- residual activity (PRKCG (human); compound 100.0 µM): 55%

SMILES: O=C(N[C@@H](COc1ccc2[nH]c(=O)[nH]c2c1)c1ccccc1)c1cccn(Cc2ccc(F)c(F)c2)c1=O
- residual activity (AURKB (human); compound 0.1 µM): 105%
- residual activity (AURKB (human); compound 1.0 µM): 104%
- residual activity (AURKB (human); compound 10.0 µM): 64%
- residual activity (STK33 (human); compound 0.1 µM): 92%
- residual activity (STK33 (human); compound 1.0 µM): 107%
- residual activity (STK33 (human); compound 10.0 µM): 79%
- residual activity ([1]; compound 0.1 µM): 97%
- residual activity ([1]; compound 1.0 µM): 96%
- residual activity ([1]; compound 10.0 µM): 83%
- residual activity (TLK1 (human); compound 0.1 µM): 97%
- residual activity (TLK1 (human); compound 1.0 µM): 103%
- residual activity (TLK1 (human); compound 10.0 µM): 99%
- residual activity (TTBK1 (human); compound 0.1 µM): 101%
- residual activity (TTBK1 (human); compound 1.0 µM): 110%
- residual activity (TTBK1 (human); compound 10.0 µM): 106%
- residual activity (EIF2AK3 (human); compound 0.1 µM): 107%
- residual activity (EIF2AK3 (human); compound 1.0 µM): 104%
- residual activity (EIF2AK3 (human); compound 10.0 µM): 96%
- residual activity (TSSK1B (human); compound 0.1 µM): 93%
- residual activity (TSSK1B (human); compound 1.0 µM): 103%
- residual activity (TSSK1B (human); compound 10.0 µM): 86%
- residual activity (TESK1 (human); compound 0.1 µM): 98%
- residual activity (TESK1 (human); compound 1.0 µM): 88%
- residual activity (TESK1 (human); compound 10.0 µM): 107%
- residual activity (TEK (human); compound 0.1 µM): 104%
- residual activity (TEK (human); compound 1.0 µM): 100%
- residual activity (TEK (human); compound 10.0 µM): 96%
- residual activity (ABL1 (human); compound 0.1 µM): 106%
- residual activity (ABL1 (human); compound 1.0 µM): 105%
- residual activity (ABL1 (human); compound 10.0 µM): 98%
- residual activity (PTK6 (human); compound 0.1 µM): 120%
- residual activity (PTK6 (human); compound 1.0 µM): 129%
- residual activity (PTK6 (human); compound 10.0 µM): 119%
- residual activity (STK16 (human); compound 0.1 µM): 101%
- residual activity (STK16 (human); compound 1.0 µM): 118%
- residual activity (STK16 (human); compound 10.0 µM): 106%
- residual activity (PHKG1 (human); compound 0.1 µM): 100%
- residual activity (PHKG1 (human); compound 1.0 µM): 117%
- residual activity (IRAK1 (human); compound 0.1 µM): 117%
- residual activity (IRAK1 (human); compound 1.0 µM): 118%
- residual activity (IRAK1 (human); compound 10.0 µM): 108%
- residual activity (ZAP70 (human); compound 0.1 µM): 102%
- residual activity (ZAP70 (human); compound 1.0 µM): 106%
- residual activity (PRKCG (human); compound 0.1 µM): 91%
- residual activity (PRKCG (human); compound 1.0 µM): 103%

SMILES: Cc1ccc(=O)n(-c2ccccc2)c1
- residual activity (AURKB (human); compound 1.0 µM): 93%
- residual activity (AURKB (human); compound 10.0 µM): 87%
- residual activity (STK33 (human); compound 1.0 µM): 82%
- residual activity (STK33 (human); compound 10.0 µM): 90%
- residual activity ([1]; compound 10.0 µM): 115%
- residual activity (TLK1 (human); compound 1.0 µM): 113%
- residual activity (TLK1 (human); compound 10.0 µM): 115%
- residual activity (TTBK1 (human); compound 1.0 µM): 124%
- residual activity (TTBK1 (human); compound 10.0 µM): 107%
- residual activity (EIF2AK3 (human); compound 1.0 µM): 106%
- residual activity (EIF2AK3 (human); compound 10.0 µM): 105%
- residual activity (TSSK1B (human); compound 1.0 µM): 87%
- residual activity (TSSK1B (human); compound 10.0 µM): 91%
- residual activity (TESK1 (human); compound 1.0 µM): 94%
- residual activity (TESK1 (human); compound 10.0 µM): 82%
- residual activity (TEK (human); compound 1.0 µM): 110%
- residual activity (TEK (human); compound 10.0 µM): 118%
- residual activity (ABL1 (human); compound 1.0 µM): 106%
- residual activity (ABL1 (human); compound 10.0 µM): 112%
- residual activity (PTK6 (human); compound 1.0 µM): 101%
- residual activity (PTK6 (human); compound 10.0 µM): 92%
- residual activity (STK16 (human); compound 1.0 µM): 87%
- residual activity (STK16 (human); compound 10.0 µM): 96%
- residual activity (PHKG1 (human); compound 1.0 µM): 103%
- residual activity (PHKG1 (human); compound 10.0 µM): 96%
- residual activity (IRAK1 (human); compound 1.0 µM): 105%
- residual activity (ZAP70 (human); compound 1.0 µM): 110%
- residual activity (PRKCG (human); compound 1.0 µM): 99%
- residual activity (PRKCG (human); compound 10.0 µM): 94%

SMILES: COc1ccc(-n2ncc3cnc(Nc4cc(OC)c(OC)c(OCCCN5CCN(C)CC5)c4)nc32)cc1
- residual activity (AURKB (human); compound 0.1 µM): 36%
- residual activity (AURKB (human); compound 1.0 µM): 11%
- residual activity (STK33 (human); compound 0.1 µM): 30%
- residual activity (STK33 (human); compound 1.0 µM): 23%
- residual activity ([1]; compound 0.1 µM): 101%
- residual activity ([1]; compound 1.0 µM): 71%
- residual activity (TLK1 (human); compound 0.1 µM): 79%
- residual activity (TLK1 (human); compound 1.0 µM): 39%
- residual activity (TTBK1 (human); compound 0.1 µM): 104%
- residual activity (TTBK1 (human); compound 1.0 µM): 102%
- residual activity (EIF2AK3 (human); compound 1.0 µM): 31%
- residual activity (TSSK1B (human); compound 0.1 µM): 31%
- residual activity (TSSK1B (human); compound 1.0 µM): 5%
- residual activity (TESK1 (human); compound 0.1 µM): 59%
- residual activity (TESK1 (human); compound 1.0 µM): 24%
- residual activity (TEK (human); compound 0.1 µM): 60%
- residual activity (TEK (human); compound 1.0 µM): 11%
- residual activity (ABL1 (human); compound 0.1 µM): 31%
- residual activity (ABL1 (human); compound 1.0 µM): 7%
- residual activity (PTK6 (human); compound 0.1 µM): 46%
- residual activity (PTK6 (human); compound 1.0 µM): 6%
- residual activity (STK16 (human); compound 0.1 µM): 101%
- residual activity (STK16 (human); compound 1.0 µM): 42%
- residual activity (PHKG1 (human); compound 0.1 µM): 56%
- residual activity (PHKG1 (human); compound 1.0 µM): 12%
- residual activity (IRAK1 (human); compound 0.1 µM): 19%
- residual activity (IRAK1 (human); compound 1.0 µM): 5%
- residual activity (ZAP70 (human); compound 0.1 µM): 54%
- residual activity (ZAP70 (human); compound 1.0 µM): 22%
- residual activity (PRKCG (human); compound 0.1 µM): 117%
- residual activity (PRKCG (human); compound 1.0 µM): 71%

From the kinase profiling compilation of Christmann-Franck et al. (2016)
